# Measured values from patent publication US10849336B2, “Cocoa-based food products” (IP Science Limited, priority 2011, dated 2020).
# Values joined by “and” are separate entries in the source; they are usually repeats but may differ in a detail not shown here. Identical values can stand only once.
# Assays:
# CHD patients = test: Clinical trial in CHD patients, daily lycopene, control chocolate or L-chocolate; assay type: in vivo, human
# Experimental: Commercially available dark chocolate (Green & Black's Dark Chocolate; 85% cocoa) was melted at 70° C. The melted chocolate was mixed with tomato oleoresin, containing 15% of lycopene (Lyc-O-Mato), in the ratio of 1.57 mg of oleoresin to 1 g of the chocolate. The mixture was blended for 10 minutes and then divided into daily […] 30 g portions and cooled down to the room temperature.
# Each […] 30 g chocolate portion contained 47.1 mg of tomato oleoresin or about 7 mg of lycopene.
# The melting and mixing procedures were performed as described above using the same commercially available dark chocolate, but instead of tomato oleoresin, sunflower oil (Floral™) was used.
# 47.1 mg of tomato oleoresin was pre-dissolved in ethanol and mixed with Whey Protein as described in Richelle et al (2002) J Nutr 132 404-408, WO01/091588 and US2002/01072992. Then the mixture was placed into gelatine capsules.
# 18 male CHD patients, age 47-69, were recruited for this study.
# Main inclusion criteria were: • elevated total serum cholesterol above 200 mg/dL and/or triglycerides above 150 mg/dL, • all patients were naive for any lipid-lowering medications, • stable clinical conditions and regimen of medications was t the last 3 months.
# Secondary inclusion criteria were: • positive blood markers on inflammatory oxidative damage, IOD, >20-30 μM MDA • positive blood on an antibody inflammatory marker, Px-IgG>0.250-0.300 U/ml
# All patients were randomised and divided into three equal groups of 6 patients each. Two groups receiving chocolate were blinded; the group receiving lycopene preparation along was open labelled. The period of the trial was 4 weeks.
# cholesterol = details: cited from earlier work
# [1] = Baseline, group mean (unlabelled last line)
# [2] = Week 1, group mean (unlabelled last line)
# [3] = Week 2, group mean (unlabelled last line)
# [4] = Week 3, group mean (unlabelled last line)
structure (smiles),measurement,setting,value
CC(C)=CCC/C(C)=C/C=C/C(C)=C/C=C/C(C)=C/C=C/C=C(C)/C=C/C=C(C)/C=C/C=C(\C)CCC=C(C)C [Lycopene],ALT,CHD patients; [1],29.2 U/L
same,AST,CHD patients; [1],37.3 U/L
same,GL,CHD patients; [1],5.4 mmol/L
same,HDL,CHD patients; [1],40.5 mg/dL
same,IOD,CHD patients; [1],95 μM MDA
same,LDL,CHD patients; [1],157 mg/dL
same,Px-IgG,CHD patients; [1],0.762 U/ml
same,TC,CHD patients; [1],222 mg/dL
same,TG,CHD patients; [1],149 mg/dL
same,ALT,"CHD patients; Baseline, individual patient",35 U/L and 29 U/L and 26 U/L and 25 U/L and 36 U/L and 24 U/L
same,AST,"CHD patients; Baseline, individual patient",27 U/L and 49 U/L and 25 U/L and 44 U/L and 45 U/L and 34 U/L
same,GL,"CHD patients; Baseline, individual patient",4.4 mmol/L and 5.9 mmol/L and 6.1 mmol/L and 6.5 mmol/L and 5.6 mmol/L and 3.8 mmol/L
same,HDL,"CHD patients; Baseline, individual patient",44 mg/dL and 37 mg/dL and 40 mg/dL and 39 mg/dL and 42 mg/dL and 41 mg/dL
same,IOD,"CHD patients; Baseline, individual patient",95 μM MDA and 83 μM MDA and 49 μM MDA and 101 μM MDA and 162 μM MDA and 79 μM MDA
same,LDL,"CHD patients; Baseline, individual patient",161 mg/dL and 186 mg/dL and 147 mg/dL and 153 mg/dL and 159 mg/dL and 135 mg/dL
same,Px-IgG,"CHD patients; Baseline, individual patient",0.803 U/ml and 0.751 U/ml and 0.743 U/ml and 0.698 U/ml and 0.811 U/ml
same,TC,"CHD patients; Baseline, individual patient",219 mg/dL and 243 mg/dL and 210 mg/dL and 225 mg/dL and 231 mg/dL and 204 mg/dL
same,TG,"CHD patients; Baseline, individual patient",126 mg/dL and 165 mg/dL and 157 mg/dL and 161 mg/dL and 150 mg/dL and 134 mg/dL
same,ALT,CHD patients; [2],31.5 U/L
same,AST,CHD patients; [2],39.7 U/L
same,GL,CHD patients; [2],5.3 mmol/L
same,HDL,CHD patients; [2],40.3 mg/dL
same,IOD,CHD patients; [2],96 μM MDA
same,LDL,CHD patients; [2],157 mg/dL
same,Px-IgG,CHD patients; [2],0.823 U/ml
same,TC,CHD patients; [2],221 mg/dL
same,TG,CHD patients; [2],150 mg/dL
same,ALT,"CHD patients; Week 1, individual patient",31 U/L and 33 U/L (2×) and 29 U/L (2×) and 34 U/L
same,AST,"CHD patients; Week 1, individual patient",47 U/L and 46 U/L and 36 U/L and 31 U/L and 44 U/L and 34 U/L
same,GL,"CHD patients; Week 1, individual patient",6.4 mmol/L and 5.7 mmol/L and 4.9 mmol/L and 3.6 mmol/L and 5.1 mmol/L and 6.1 mmol/L
same,HDL,"CHD patients; Week 1, individual patient",39 mg/dL and 42 mg/dL and 40 mg/dL (2×) and 43 mg/dL and 38 mg/dL
same,IOD,"CHD patients; Week 1, individual patient",99 μM MDA and 158 μM MDA and 85 μM MDA and 94 μM MDA and 81 μM MDA and 57 μM MDA
same,LDL,"CHD patients; Week 1, individual patient",153 mg/dL and 160 mg/dL (2×) and 134 mg/dL and 185 mg/dL and 149 mg/dL
same,Px-IgG,"CHD patients; Week 1, individual patient",0.823 U/ml and 0.746 U/ml and 0.809 U/ml and 0.867 U/ml and 0.851 U/ml and 0.839 U/ml
same,TC,"CHD patients; Week 1, individual patient",224 mg/dL and 231 mg/dL and 205 mg/dL and 217 mg/dL and 241 mg/dL and 209 mg/dL
same,TG,"CHD patients; Week 1, individual patient",160 mg/dL and 152 mg/dL and 137 mg/dL and 130 mg/dL and 164 mg/dL and 159 mg/dL
same,ALT,CHD patients; [3],30.8 U/L
same,AST,CHD patients; [3],37.5 U/L
same,GL,CHD patients; [3],5.2 mmol/L
same,HDL,CHD patients; [3],40.3 mg/dL
same,IOD,CHD patients; [3],92 μM MDA
same,LDL,CHD patients; [3],156 mg/dL
same,Px-IgG,CHD patients; [3],0.818 U/ml
same,TC,CHD patients; [3],221 mg/dL
same,TG,CHD patients; [3],150 mg/dL
same,ALT,"CHD patients; Week 2, individual patient",29 U/L and 31 U/L (2×) and 28 U/L and 32 U/L and 34 U/L
same,AST,"CHD patients; Week 2, individual patient",43 U/L and 42 U/L and 31 U/L and 38 U/L and 41 U/L and 30 U/L
same,GL,"CHD patients; Week 2, individual patient",6.6 mmol/L and 5.2 mmol/L and 5.4 mmol/L and 4.1 mmol/L and 3.9 mmol/L and 6 mmol/L
same,HDL,"CHD patients; Week 2, individual patient",39 mg/dL (2×) and 41 mg/dL (2×) and 40 mg/dL and 42 mg/dL
same,IOD,"CHD patients; Week 2, individual patient",95 μM MDA and 139 μM MDA and 84 μM MDA and 91 μM MDA and 75 μM MDA and 68 μM MDA
same,LDL,"CHD patients; Week 2, individual patient",152 mg/dL and 158 mg/dL and 133 mg/dL and 159 mg/dL and 183 mg/dL and 150 mg/dL
same,Px-IgG,"CHD patients; Week 2, individual patient",0.812 U/ml and 0.809 U/ml and 0.815 U/ml and 0.844 U/ml and 0.830 U/ml and 0.799 U/ml
same,TC,"CHD patients; Week 2, individual patient",223 mg/dL and 230 mg/dL and 208 mg/dL (2×) and 216 mg/dL and 239 mg/dL
same,TG,"CHD patients; Week 2, individual patient",159 mg/dL and 151 mg/dL and 138 mg/dL and 132 mg/dL and 162 mg/dL and 158 mg/dL
same,ALT,CHD patients; [4],29.3 U/L
same,AST,CHD patients; [4],37.8 U/L
same,GL,CHD patients; [4],5.22 mmol/L
same,HDL,CHD patients; [4],40.2 mg/dL
same,IOD,CHD patients; [4],94 μM MDA
same,LDL,CHD patients; [4],154 mg/dL
same,Px-IgG,CHD patients; [4],0.806 U/ml
same,TC,CHD patients; [4],219 mg/dL
same,TG,CHD patients; [4],149 mg/dL
same,ALT,"CHD patients; Week 3, individual patient",32 U/L and 29 U/L and 25 U/L and 31 U/L (2×) and 28 U/L
same,AST,"CHD patients; Week 3, individual patient",42 U/L (2×) and 39 U/L and 35 U/L and 36 U/L and 33 U/L
same,GL,"CHD patients; Week 3, individual patient",6.2 mmol/L and 4.8 mmol/L and 5.1 mmol/L and 5 mmol/L and 4.4 mmol/L and 5.8 mmol/L
same,HDL,"CHD patients; Week 3, individual patient",39 mg/dL and 42 mg/dL and 40 mg/dL and 41 mg/dL (2×) and 38 mg/dL
same,IOD,"CHD patients; Week 3, individual patient",94 μM MDA and 136 μM MDA and 85 μM MDA and 93 μM MDA and 76 μM MDA and 81 μM MDA
same,LDL,"CHD patients; Week 3, individual patient",151 mg/dL and 157 mg/dL and 132 mg/dL and 155 mg/dL and 179 mg/dL and 152 mg/dL
same,Px-IgG,"CHD patients; Week 3, individual patient",0.834 U/ml and 0.781 U/ml and 0.84 U/ml and 0.795 U/ml and 0.809 U/ml and 0.774 U/ml
same,TC,"CHD patients; Week 3, individual patient",221 mg/dL and 227 mg/dL and 210 mg/dL and 214 mg/dL and 232 mg/dL and 211 mg/dL
same,TG,"CHD patients; Week 3, individual patient",155 mg/dL and 149 mg/dL and 135 mg/dL and 142 mg/dL and 161 mg/dL and 154 mg/dL
same,"changes in levels of elevated cholesterol, triglycerides and markers of oxidative damage or inflammation","CHD patients; after two weeks of administration, 7 mg lycopene or 30 g control bar",no changes
same,cholesterol-lowering effect,"cholesterol; 13 clinical studies, daily doses 25 mg of lycopene or above",7.55 ± 6.15 mg/dL
same,effect on cholesterol or other blood lipids,cholesterol; daily consumption of 6-10 mg,no effect on cholesterol or other blood lipids
